Assay results reported in patent US20220024992A1, “COMPOSITIONS AND METHODS COMPRISING LYSOCINS AS BIOENGINEERED ANTIMICROBIALS FOR USE IN TARGETING GRAM-NEGATIVE BACTERIA” (The Rockefeller University, priority 2018, published 2022).
Values joined by “and” are separate entries in the source; they are usually repeats but may differ in a detail not shown here. Identical values can stand only once.

Tests used:
P. aeruginosa strain 453 [1] = test: Endotoxin release (chromogenic LAL assay); type: cell-based; conditions: after 4 h treatment, 0.2× and 5×MIC
Procedure: Endotoxin Release P. aeruginosa strain 453 at 10^6 CFU/ml was treated with 0.2× and 5×MIC PyS2-GN4, colistin, meropenem or tobramycin in CAA medium for either 1 or 4 h at 37° C. The samples were subsequently centrifuged at 2,000×g for 10 min. The supernatant was collected and passed through a 0.2 μm syringe filter. Endotoxin concentration in the filtered supernatant was quantitated using the ToxinSensor Chromogenic LAL Endotoxin Assay Kit (GenScript). All data was depicted as the mean±SEM of duplicate experiments.

P. aeruginosa strain 453 [2] = test: Plate lysis assay using viable Pseudomonas; type: cell-based
Procedure: For determining muralytic activity, 25 pmol of each purified protein sample was spotted on 0.75% (wt/vol) agarose embedded with autoclaved P. aeruginosa in 50 mM Tris-HCl, pH 7.5. […] For elucidating antipseudomonal activity towards viable bacteria, 0.01-400 pmol of each purified protein sample was spotted on 0.75% (wt/vol) agarose comprising P. aeruginonsa strain 453 at an initial concentration of 5×10^6 CFU/ml in either CAA medium or CAA:HuS (1:1; HuS from pooled human male AB plasma, Sigma-Aldrich). Growth inhibition zones observed after 24 h incubation at 37° C. correspond to antipseudomonal activity. Buffer was spotted as a negative control.

P. aeruginosa strains = test: MIC and MBC, modified CLSI broth microdilution, CAA medium; type: cell-based
Procedure: (§1) The MIC and MBC values were calculated using a modified version of the broth microdilution assay as previously described by the Clinical and Laboratory Standards Institute (CLSI) (45). The specific modifications were to the bacterial concentration and growth medium used. […] CAA medium was used for Gram-negative bacteria to simulate low iron conditions. Alternatively, MHB was used for Gram-positive bacteria due to their inability to grow in CAA medium. Bacterial growth was assessed by measuring the OD600 nm using a SpectraMax M5 microplate reader (Molecular Devices). The MIC was defined as the lowest antimicrobial concentration that inhibits bacterial growth. To determine the MBC, the contents from each well originating from the MIC microtiter plate was plated on CAA agar to quantitate bacterial viability. The MBC was defined as the lowest antimicrobial concentration required to kill ≥99.9% of the initial bacterial inoculum. Growth and sterility controls were included.

P. aeruginosa strain 453 [3] = test: Lysocin thermal stability (residual antipseudomonal activity after heating); type: physicochemical; conditions: 30 min incubation in PBS, then 50 μg/ml for 4 h at 37° C.
Procedure: FIG. 7. Lysocin thermal stability. PyS2-GN4 was incubated in phosphate buffered saline (PBS) for 30 min at temperatures ranging from 4° C. to 80° C. After cooling on ice, each sample at 50 μg/ml was incubated statically with P. aeruginosa strain 453 for a total of 4 h at 37° C. The average residual antipseudomonal activity of each sample was equated to the log10 decrease in viable bacterial cells when compared to the untreated control. All error bars correspond to ±SEM of triplicate experiments.

B. cereus RSVF1 = test: MIC, modified broth microdilution, MHB; type: cell-based
Procedure: as §1

S. pyogenes D471 = test: MIC, modified broth microdilution, MHB; type: cell-based
Procedure: as §1

E. faecium EFSK-2 = test: MIC, modified broth microdilution, MHB; type: cell-based
Procedure: as §1

S. aureus NR-45946 = test: MIC, modified broth microdilution, MHB; type: cell-based
Procedure: as §1

P. aeruginosa strain 453 [4] = test: Transmission electron microscopy of lysocin-treated bacteria; type: cell-based; conditions: 50 μg/ml
Procedure: At 0, 30 and 60 min, an aliquot was removed and fixed with 100 mM sodium cacodylate, pH 7.4, containing 4% (vol/vol) paraformaldehyde and 2% (vol/vol) glutaraldehyde. TEM images were obtained by The Rockefeller University Electron Microscopy Resource Center.

E. cloacae NR-50391 = test: MIC, modified broth microdilution, CAA medium; type: cell-based
Procedure: as §1

E. coli ATCC 25922 = test: MIC, modified broth microdilution, CAA medium; type: cell-based
Procedure: as §1

K. pneumoniae NR-41916 = test: MIC, modified broth microdilution, CAA medium; type: cell-based
Procedure: as §1

A. baumaneii ATCC 17978 = test: MIC, modified broth microdilution, CAA medium; type: cell-based
Procedure: as §1

P. aeruginosa strain 453 [5] = test: Dose-response cell viability assay (killing kinetics); type: cell-based; conditions: for reduction in bacterial viability: 0.1-100 μg/ml, CAA medium with EDDHA
Procedure: For the 12 h experiments, 0.01-100 μg/ml of PyS2-GN4 was incubated statically at 37° C. with P. aeruginosa strain 453 at 10^6 CFU/ml in CAA medium with 0.5 mg/ml EDDHA (Complete Green Company). At 2 h increments, an aliquot was removed from each sample, serial diluted and plated on CAA agar to determine viable bacterial counts. For the 24 h experiments, lysocin at 0.1-100 μg/ml was incubated statically at 37° C. with P. aeruginosa strain 453 at 10^6 CFU/ml in either CAA medium or CAA:HuS (1:1) with EDDHA. After 24 h, the samples were serial diluted and plated on CAA agar to assess bacterial viability. An untreated control was used for each data set. All samples were investigated in duplicate.

P. aeruginosa strain 453 [6] = test: Cell viability assays with 0.5 μM antimicrobial; conditions: iron-chelated CAA medium
Procedure: P. aeruginosa strain 453 were grown under iron-depleted conditions (see Bacterial Strains and Growth Conditions). The bacteria were harvested, washed and resuspended in fresh CAA medium with 0.5 mg/ml EDDHA. Using a 96-well flat-bottomed microtiter plate, the bacteria at ˜10^6 CFU/ml were incubated statically at 37° C. with either growth medium only (untreated control) or 0.5 μM purified antimicrobial. A 2 h incubation was used for the single time point experiments, whereas a 4 or 6 h incubation was used for the multiple time point assays. At various time points, an aliquot was removed from each sample, serially diluted and plated on CAA agar. After incubating the agar plates for up to 48 h at 37° C., colonies were counted in order to quantitate the CFU/ml concentration of surviving bacterial cells. Modifications were introduced to the aforementioned cell viability assay protocol for the experiment using P. aeruginosa grown in the presence of varying free iron concentrations. First, P. aeruginosa strain 453 were grown using iron-depleted or iron-rich conditions (CAA medium supplemented with 100 μM FeSO4) at 37° C. with aeration for a total of 16-18 h and subsequently assayed for lysocin sensitivity in PBS, pH 7.4. For the experiment analyzing lysocin activity in the presence of lung surfactant or serum, P. aeruginosa were incubated with or without lysocin in beractant ([sequence]; Abbvie) or HuS diluted 1:1 with 20 mM sodium phosphate, pH 7.0.

P. aeruginosa strain 453 [7] = test: Murine model of bacteremia; type: in vivo, mice; conditions: for protected from death (survival over 10 days): 3 h post-infection
Procedure: A murine model of bacteremia using P. aeruginosa was adapted from previous studies (46-50). Briefly, male 6-week-old C57BL/6 mice (Charles River Laboratories) were IP infected with 10^8 P. aeruginosa strain 453 and then IP treated 3 h post-infection with a single dosage of either PBS or PyS2-GN4 at 2.5-25 mg/kg. Survival was monitored for 10 days. The collective results were obtained from four independent experiments and analyzed by Kaplan-Meier survival curves using GraphPad Prism. The Rockefeller University Institutional Animal Care and Use Committee approved all mouse experiments (protocol 17025).

[8] = system: pseudomonal PG (autoclaved P. aeruginosa); test: Muralytic plate lysis assay on autoclaved Pseudomonas; type: biochemical; conditions: 25 pmol spotted

With “PyS2-GN4: lysocin: PyS2 domains I-III, with domain IV (aa 559-689) deleted and replaced by the GN4 lysin (aa 1-144); 76 kDa” the “endotoxin release, fold less than meropenem and tobramycin” value (P. aeruginosa strain 453 [1]) was ~100 fold, the “amount spotted at which activity could be observed” value (P. aeruginosa strain 453 [2]; 50% HuS) was 0.13 pmol and the “amount spotted at which antipseudomonal activity was displayed” value (P. aeruginosa strain 453 [2]; growth medium (CAA)) was 0.64 pmol. The MIC (P. aeruginosa strains; strain 452, FpvA type I) was 4 mg/L, the MBC (P. aeruginosa strains; strain 453, FpvA type I) was 0.25 mg/L and the MIC (P. aeruginosa strains; strain 453, FpvA type I) was 0.25 mg/L. The MIC (P. aeruginosa strains; strain MDR-M-3, FpvA type I) was 2 mg/L, the MIC (P. aeruginosa strains; strain PAO1, FpvA type I) was 2 mg/L and the MIC values (P. aeruginosa strains; towards strain PAO1 and the 452, 453 and MDR-M-3 clinical isolates) was ≤ 4 mg/L. For the same substance, the “temperature at which bactericidal activity was fully retained” value (P. aeruginosa strain 453 [3]) was 45 °C, the MIC (B. cereus RSVF1) was >256 mg/L and the MIC (S. pyogenes D471) was >256 mg/L. The MIC (E. faecium EFSK-2) was >256 mg/L, the MIC (S. aureus NR-45946) was >256 mg/L and the “bacterial morphology by TEM” value (P. aeruginosa strain 453 [4]; 30 min post-treatment) was “transitioned from rod-shaped to a more spherical morphology”. For the same substance, the “bacterial morphology by TEM” value (P. aeruginosa strain 453 [4]; 60 min post-treatment) was “intact, nonviable cells either lacking or with noticeably reduced cytoplasmic content”, the MIC (E. cloacae NR-50391) was >256 mg/L and the MIC (E. coli ATCC 25922) was >256 mg/L. For the same substance, the MIC (K. pneumoniae NR-41916) was >256 mg/L, the MIC (A. baumaneii ATCC 17978) was >256 mg/L and the “reduction in bacterial viability” value (P. aeruginosa strain 453 [5]; 2 h) was ~2 log10. The “reduction in bacterial viability” value (P. aeruginosa strain 453 [5]; 4 h) was ~3 log10, the “reduction in bacterial viability” value (P. aeruginosa strain 453 [5]; 12 h) was ~4 log10 and the “lysocin concentration that sterilized the bacterial culture” value (P. aeruginosa strain 453 [5]; 24 h, CAA medium and 50% HuS) was 10 μg/ml and 132 nM. For the same substance, the “concentration at which bactericidal” value (P. aeruginosa strain 453 [5]; after 4 h) was 0.1 µg/mL, the “decrease in pseudomonal viability” value (P. aeruginosa strain 453 [6]; 3 h) was 3.1 log10 and the “viable bacterial cells relative to limit of detection (10 CFU/ml)” value (P. aeruginosa strain 453 [6]; duration of the experiment (6 h)) was “incapable of lowering the number of viable bacterial cells to the limit of detection”. The “protected from death (survival over 10 days)” value (P. aeruginosa strain 453 [7]; 2.5 mg/kg IP) was 73%, the “protected from death (survival over 10 days)” value (P. aeruginosa strain 453 [7]; 5 mg/kg IP) was 80% and the “protected from death (survival over 10 days)” value (P. aeruginosa strain 453 [7]; 12.5 mg/kg IP) was 93%. For the same substance, the “protected from death (survival over 10 days)” value (P. aeruginosa strain 453 [7]; 25 mg/kg IP) was 100%, the “Pseudomonas in organs of surviving mice” value (P. aeruginosa strain 453 [7]; day 10) was “did not contain detectable Pseudomonas” and the “muralytic activity (clearing zones) on autoclaved P. aeruginosa” value [8] was “degraded Pseudomonas PG”.
